These results are taken from paper PMC4099174 (Journal of Medicinal Chemistry, 2014).

Where two headings read alike, the source gives them in different places.

Series [1] deals with Bloodstream Trypanosoma brucei brucei Lister 427. The experiment in a line: Trypanosome cell growth dose–response assay (resazurin viability test). Format: cell-based.
The subject of series [2] is bloodstream form of T. brucei. The experiment in a line: Transferrin uptake (receptor-mediated endocytosis). Format: cell-based, Trypanosoma brucei. To be noted: concentration twice the EC50, 18 h. The source says: Highly efficient and rapid endocytosis is one of the most important cellular processes for this infective parasite to survive and multiply within the bloodstream of the host, and the activity of TbPI3KIII is essential for this process.[25] To gain insight on the possible target(s) of our compounds, we carried out transferrin uptake experiments to measure receptor-mediated endocytosis after drug treatment. […] Compound 16e induced a phenotype defective in endocytosis (Figure 3); however, the PIP3 molecular species identified (42:7-9) was not the same PIP3 molecular species identified in WT cells (44:9-12).
Two million trypanosomes were harvested and washed with TDB-glucose plus 1% BSA, resuspended in 250 μL in the same buffer, and incubated for 10 min at 37 °C prior to the addition of 5 μg of AlexaFluor 488-conjugated human holo-Tf (Invitrogen). Incubations were carried out for 0 (no Tf) or 3 min at 37 °C, after which cells were immediately fixed in 4 °C in 1% PFA diluted in cold PBS for at least 1 h. Parasites were finally washed twice with PBS and analyzed with a Becton Dickinson FACSCalibur flow cytometer (BD Biosciences) using BD CellQuest Pro version 4.0.2 software.

The nature of another series: ChromlogD assay. To be noted: pH 7.4. Format: physicochemical. As to the method:
page 13: PHYSICOCHEMICAL PROPERTIES ASSAYS […] phosphate buffered saline, equilibrated for 1 hour at room temperature, filtered through Millipore […] filter plates (MSSL BPC). The filtrate is quantified by suitably calibrated flow injection ChemicLuminescent Nitrogen Detection.1 The standard error of the CLND solubility […] DMSO stock solution. GSK inchouse Artificial Membrane Permeability Assay: […] in 1% cholesterol decane solution was applied to a […], 0.4um, PCF culture plate. 250 μL and 100 μL 50 mM phosphate buffer pH 7.4 with 0.5% […] applied to the […] in DMSO was added to the donor compartment. The assay was incubated at RT for 3 hours. Samples from both donor and receiver compartments were analyzed by HPLC with UV detection at 215 and 254 nm and permeability was calculated. The permeability (logPapp) measuring how fast molecules pass through the black lipid membrane is expressed in nm/s. ChromlogD assay. The Chromatographic Hydrophobicity Index (CHI)2 values were measured using reversed phase HPLC column (Luna C18 (2),Phenomenex, UK) with fast acetonitrile gradient at starting mobile phase of pH = 7.4. CHI values are derived directly from the gradient retention times by using a calibration line obtained for standard compounds. The CHI value approximates to the volume % organic concentration when the compound elutes. CHI is linearly transformed into ChromlogD by leastcsquare fitting of experimental CHI values to calculated ClogP values for over 20K research compounds using the following formula: ChromlogD = 0.0857CHIc2.00. The average error of the assay is ±3 CHI unit or ±0.25 ChromlogD. S13

For series [3], the system named is phosphorylated PIs (PIP, PIP3) in T. brucei cells. The experiment in a line: Phospholipidomics analysis (ES-MS of lipid extracts). Format: cell-based, Trypanosoma brucei. The following applies: 200 nM, 12 h; negative ion mode scans 950–1300 m/z. The source says: We originally selected 1 to investigate its potential as an trypanocidal agent on the basis of its activity as a PI3K/mTOR inhibitor in mammalian cells and the fact that PI3K activity is essential for the bloodstream form of the T. brucei parasite.[25] In the interest of elucidating the potential mechanism of action against T. brucei cells, we performed a lipidomic analysis to discern if PI kinases are likely targets of these analogues. Lipid extracts of cells grown in the presence of the best compounds at sublethal doses (200 nM) for 12 h were analyzed by ES-MS. […] There were no significant differences in the phosphatidylcholine (PC) and sphingomylein (SM) species between the control and cells grown in the presence of the other compounds (Figure S1). […] Alternatively, as is often the case, changes in the lipid profile could be a reflection in the cells succumbing to (or adapting to) a defect in a major cellular process, such as endo- or exocytosis or cell cycle arrest.
Because these compounds are thought to target PI3K, negative ion mode scans between 950 and 1300 m/z were conducted to focus upon singly and multiply phosphorylated PIs.
Total lipids from mid log phase cells were extracted by the method of Bligh and Dyer.[30] Briefly, mid log phase cells were collected by centrifugation (800g, 10 min), washed with PBS, resuspended in 100 μL of TDB-glucose, transferred to a glass tube containing 375 μL of 1:2 (v/v) CHCl3/MeOH, and vortexed. The sample was agitated vigorously for a further 10–15 min. The sample was made biphasic by the addition of 125 μL of CHCl3 and vortexed, and then 125 μL of H2O was added. The sample was vortexed again and centrifuged at 3000g at rt for 10 min. The lower (organic) phase was transferred into a new glass vial, and the aqueous phase was re-extracted with the fresh lower phase. The resultant lower phase lipid extract was dried under a stream of nitrogen and stored at 4 °C.
Lipid extracts were dissolved in 15 μL of CHCl3/MeOH (1:2) and 15 μL of acetonitrile/isopropanol/water (6:7:2) and analyzed with a triple quadrupole mass spectrometer (Absceix 4000 QTrap) equipped with a nanoelectrospray source. […] The lipid extracts were analyzed in both positive and negative ion modes using a capillary voltage of 1.25 kV. […] Tandem mass spectra (MS/MS) were obtained with collision energies as follows: 35–45 V, PC/SM in positive ion mode, parent-ion scanning of m/z 184; 35–55 V, PI in negative ion mode, parent-ion scanning of m/z 241; 35–65 V, PE in negative ion mode, parent-ion scanning of m/z 196; 20–35 V, PS in negative ion mode, neutral loss scanning of m/z 87; and 40–90 V, for all glycerophospholipids (including PA, PG, and cardiolipin) detected by precursor scanning for m/z 153 in negative ion mode. […]

Series [4] deals with Bloodstream form culture of T. b. brucei. The experiment in a line: Cell cycle analysis by FACS (propidium iodide). Format: cell-based, Trypanosoma brucei brucei. To be noted: concentration twice the EC50, 18 h. The procedure: For cell cycle analysis, samples (1.5 × 10^6 cells) were collected, centrifuged (1400g at 4 °C for 5 min), and washed in trypanosome dilution buffer (TDB). The cell pellets were gently suspended in 50 μL of TDB and permeabilized by adding 1 μL of saponin (25 mg/mL) for 3 min. It was then mixed with another 450 μL of TDB. RNase and propidium iodide (PI) were added to the suspension at final concentrations of 10 and 20 μg/mL, respectively, and the samples were incubated at room temperature for 30 min and then stored at 4 °C. The DNA content of PI-stained cells and the percentage of cells in each phase of the cell cycle (10 000 cells per sample) were analyzed with a Becton Dickinson FACSCalibur flow cytometer (BD Biosciences) using BD CellQuest Pro version 4.0.2 software.
Figure S3. Cell Cycle analysis of parasites upon dosage with NVP-BEZ235 derivative.
Bloodstream form culture of T. b. brucei was subjected to different drugs and analyzed by
Fluorescencecactivated cell sorter (FACS) for DNA content stained by propidium iodide (PI).
Cell cultures were incubated during 18 h with various NVPcBEZ235 derivatives using DMSO as
a control treatment. Mean ± SD of three independent experiments are shown.
In general terms: Flow cytometry measures light scatter and fluorescence of single cells or particles in a stream.

[5] abbreviates: Table 2, average of two replicates, read-out: T brucei EC50.
Setting [6] is: Table 4, measured value (outside parentheses).

Regarding “1-(4-((4-Methylpiperazin-1-yl)methyl)phenyl)-8-(pyridin-4-yl)-1H-imidazo[4,5-c]quinolin-2(3H)-one [Compound 16j]”, in the series on HepG2 cell line, the “HepG2 TC50” value is more than 7.6 µM. Also, the EC50 in series [1] (setting [5]) came to 3.35 µM.
The corresponding values for “1-Methyl-8-(pyridin-4-yl)-1H-imidazo[4,5-c]quinolin-2(3H)-one [Compound 16k]” are more than 20 µM and 3.27 µM.
`Cn1c(=O)n(-c2ccc(C(C)(C)C#N)cc2)c2c3cc(-c4cnc5ccccc5c4)ccc3ncc21` [Compound 1, NVP-BEZ235, reference compound]: in series [2], the “transferrin uptake / endocytosis” value is listed as “inhibited endocytosis dramatically”. The compound further came in with a chromatographic logD in the series “ChromlogD assay” of 4.75. Further, the “phosphorylated PI (PIP) levels vs control cells” value in series [3] is recorded as “almost complete absence of all phosphorylated PIs”. In series [4], the cell cycle progression entry is “did not significantly alter cell cycle progression”.
As for `Cc1ccc(-n2c(=O)n(C)c3cnc4ccc(-c5ccncc5)cc4c32)cc1` [Compound 16e, 3-Methyl-8-(pyridin-4-yl)-1-(p-tolyl)-1H-imidazo[4,5-c]quinolin-2(3H)-one], the “transferrin uptake / endocytosis” value in series [2] is listed as “inhibited endocytosis dramatically”. In “ChromlogD assay” (setting [6]), the chromatographic logD was 3.5. Also, in series [3], the “phosphorylated PI (PIP) levels vs control cells” value is “significant (albeit incomplete) reduction in PIP levels”. In addition, the cell cycle progression entry in series [4] was “did not significantly alter cell cycle progression”.
The corresponding values for `COc1ccc(-n2c(=O)n(C)c3cnc4ccc(-c5ccncc5)cc4c32)cc1` [Compound 16g, 1-(4-Methoxyphenyl)-3-methyl-8-(pyridin-4-yl)-1H-imidazo[4,5-c]quinolin-2(3H)-one] are “inhibited endocytosis dramatically”, 3.03, “almost complete absence of all phosphorylated PIs” and “did not significantly alter cell cycle progression”.
On to `CC(C)(C#N)c1ccc(Nc2c(N)cnc3ccc(-c4cnc5ccccc5c4)cc23)cc1` [Compound 20, 2-(4-((3′-Amino-[3,6′-biquinolin]-4′-yl)amino)phenyl)-2-methylpropanenitrile], for which the EC50 in series [1] (Trypanosoma brucei, read-out: EC50 against T. brucei) was determined as 0.767 µM.

One may read the EC50 as the midpoint of the concentration-response curve. In general, chromatographic logD refers to lipophilicity estimated from chromatographic retention.
